ChEMBL document CHEMBL1255464, “Ethambutol optimal clinical dose and susceptibility breakpoint identification by use of a novel pharmacokinetic-pharmacodynamic model of disseminated intracellular Mycobacterium avium” (Antimicrob Agents Chemother, 2010)
Converted amounts (≈) assume the structure as drawn.

Columns and labels:
Mycobacterium avium [1] = assay: Antimycobacterial activity against Mycobacterium avium ATCC 700898 infected in human THP1 cells assessed as intracellular bacterial killing after 7 days; format: functional, organism-based; settings: ATCC 700898, THP-1, 168 h
Mycobacterium avium [2] = assay: Antimycobacterial activity against Mycobacterium avium ATCC 700898 infected in human THP1 cells assessed as extracellular bacterial killing; format: functional; settings: ATCC 700898, THP-1
Mycobacterium avium [3] = assay: Antimycobacterial activity against Mycobacterium avium ATCC 700898 infected in human THP1 cells assessed as intracellular bacterial killing; format: functional; settings: ATCC 700898, THP-1
Mycobacterium avium [4] = assay: Antimycobacterial activity against Mycobacterium avium ATCC 700898 infected in human THP1 cells; format: functional, THP-1
Mycobacterium avium [5] = assay: Antimycobacterial activity against Mycobacterium avium ATCC 700898 infected in human THP1 cells assessed as extracellular bacterial killing after 7 days; format: functional, organism-based; settings: ATCC 700898, THP-1, 168 h
THP-1 = assay: Cytotoxicity against human THP1 cells; format: cell-based

**Q.** `CC[C@@H](CO)NCCN[C@@H](CC)CO` [ETHAMBUTOL] was tested. Which EC50 (Mycobacterium avium [1]) did it give?
**A.** Its EC50 is 7.93 µg/mL (≈ 38.8 µM).

**Q.** And the Emax (Mycobacterium avium [2])?
**A.** Its Emax is 5.54 log10 CFU/ml.

**Q.** What about the Emax (Mycobacterium avium [3]) of the same molecule?
**A.** Its Emax is 0.67 log10 CFU/ml.

**Q.** What about the MIC (Mycobacterium avium [4]) of the same molecule?
**A.** Its MIC is 8 µg/mL (≈ 39.2 µM).

**Q.** And the EC50 (Mycobacterium avium [5])?
**A.** The EC50 was 5.38 µg/mL (≈ 26.3 µM).

**Q.** What about the Activity (THP-1) of the same molecule?
**A.** The Activity was “Non-toxic”.
